Here are results for 1 molecule from patent US10184115B2, “Mutated cellobiose dehydrogenase with increased substrate specificity” (DIRECTSENS GMBH, priority 2012, dated 2019).

This experiment concerns the target T1, Myriococcum thermophilum cellobiose dehydrogenase (CDH, SEQ ID NO: 1) variant N721D (Thermothelomyces myriococcoides, UniProt A9XK88, N721D).
T1 sequence (A9XK88 22-828 N721D): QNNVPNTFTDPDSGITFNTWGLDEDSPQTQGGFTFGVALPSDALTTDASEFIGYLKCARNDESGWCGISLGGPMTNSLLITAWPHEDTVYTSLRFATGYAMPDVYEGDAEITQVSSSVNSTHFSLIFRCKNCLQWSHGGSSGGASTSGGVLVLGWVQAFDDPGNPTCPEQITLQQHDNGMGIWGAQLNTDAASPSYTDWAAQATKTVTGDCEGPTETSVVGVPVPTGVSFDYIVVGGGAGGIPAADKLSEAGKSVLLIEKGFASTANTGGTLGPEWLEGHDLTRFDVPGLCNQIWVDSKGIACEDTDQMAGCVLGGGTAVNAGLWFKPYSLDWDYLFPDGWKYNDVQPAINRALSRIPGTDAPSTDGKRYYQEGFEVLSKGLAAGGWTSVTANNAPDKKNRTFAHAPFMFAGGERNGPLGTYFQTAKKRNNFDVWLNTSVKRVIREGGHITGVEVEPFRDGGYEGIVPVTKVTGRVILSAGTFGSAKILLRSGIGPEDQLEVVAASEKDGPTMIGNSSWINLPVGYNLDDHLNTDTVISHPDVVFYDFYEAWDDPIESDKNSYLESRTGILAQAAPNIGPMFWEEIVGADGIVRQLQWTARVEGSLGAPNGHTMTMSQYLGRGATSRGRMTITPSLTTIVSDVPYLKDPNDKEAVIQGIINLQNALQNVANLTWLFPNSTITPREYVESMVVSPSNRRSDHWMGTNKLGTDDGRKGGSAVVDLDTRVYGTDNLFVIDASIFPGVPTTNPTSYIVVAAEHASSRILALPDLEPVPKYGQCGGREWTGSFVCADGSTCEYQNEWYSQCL
Nature of the experiment: Steady-state kinetics, DCIP assay: M. thermophilum CDH N721D. It is filed as biochemical. The note with it: apparent, pH 4.5, 30° C. Here is the method:
Enzyme activity was assayed at 30° C. using either the DCIP (Karapetyan et al., 2005 Journal of Biotechnology 121: 34-48) or cytochrome c (Canevascini et al., 1991, European Journal of Biochemistry 198: 43-52) as electron acceptor. […] Stock solutions of carbohydrates used for kinetic measurements were prepared in the respective buffer and allowed to stand overnight for mutarotation, while stock solutions of electron acceptors were prepared in water and immediately used. The reaction stoichiometry is 1 for the two-electron acceptor DCIP (1 mole of DCIP reduced per mole of carbohydrate oxidized), but 2 for the one-electron acceptor cytochrome c. Kinetic constants were calculated by fitting the observed data to the Henri-Michaelis-Menten equation or to the adapted model for substrate inhibition using nonlinear least-squares regression and the program SigmaPlot (Systat Software, San Jose, Calif., USA). […]
Recombinant wild-type CDH as well as variants were produced in 1 L baffled flasks. […] Increase in activity was monitored using the DCIP and the cytochrome c enzyme assays. […]
The sample was loaded on a 20 mL PHE Sepharose FF column (HR26/20) equilibrated with 50 mM Na-acetate buffer pH 5.5 containing 20% ammonium sulfate. […] Fractions were tested for CDH activity and pooled according to the highest Reinheitszahl (RZ, calculated from the absorbance ratio 420 nm/280 nm). […]

For orientation: kcat means the number of substrate molecules converted per active site and unit of time at saturation. As a reminder, the kcat/KM is the turnover number divided by the Michaelis constant. Turning to `OC[C@H]1OC(O)[C@H](O)[C@@H](O)[C@@H]1O` (some centres unmarked) [Glucose, glucose], the kcat worked out at 1.9 s⁻¹ and the kcat/KM was 5.9 M⁻¹ s⁻¹.
